In patent US10167306B2, “Crystalline form of 1-(beta-D-glucopyranosyl)-4-methyl-3-[5-(4-fluorophenyl)-2-thienylmethyl]benzene and preparation method thereof” (SHANGHAI DESANO PHARMACEUTICALS INVESTMENT CO., LTD, priority 2015, dated 2019):

Tests used:
[1] = Suspension of crystalline form W in water, XRPD comparison; assay type: physicochemical; settings: suspended in water of 20° C. and 60° C. for 4 days; form W prepared in Example 1; FIG. 5
Method: (§1) X-ray powder diffraction instrument: Brucker D8 advance X-ray powder diffraction; radiation source: copper target (α=1.540600 Å), scanning at room temperature; voltage: 40 kv; Current: 40 mA; starting 2θ: 2.000°, scanning range: 2.0000-50.000°; step size: 0.020°; measuring time: 12.6 seconds/step.
Crystalline forms W of canagliflozin prepared in Examples 1-7 were suspended in water of 20° C. and 60° C. for 4 days.

[2] = Crystalline form competition experiment: 1:1 mixture of form W and hemihydrate form suspended in water, XRPD comparison; assay type: physicochemical
Method: as §1
Crystalline forms W of canagliflozin prepared in Examples 1-7 were mixed with the hemihydrate crystalline of canagliflozin (the product after crystallization) prepared in Example 1 in WO2008069327 in a ratio of 1:1, and the mixtures were suspended in water of 20° C. and 60° C. for 4 days, respectively.

Row | stability of crystalline form (XRPD pattern) after suspending in water [1] | relative stability in the crystalline form competition experiments ([2]; versus hemihydrate crystalline form, 1:1 mixture in water of 20° C. and 60° C. for 4 days) | SMILES | crystalline form transformation in the 1:1 mixture (XRPD pattern) ([2]; 1:1 mixture of form W (Example 1) and hemihydrate form of WO2008069327, suspended in water of 20° C. and 60° C. for 4 days, FIG. 6)
1 | excellent stability | better stability | Cc1ccc([C@@H]2O[C@H](CO)[C@@H](O)[C@H](O)[C@H]2O)cc1Cc1ccc(-c2ccc(F)cc2)s1 [crystalline form W, 1-(β-D-glucopyranosyl)-4-methyl-3-[5-(4-fluorophenyl)-2-thienylmethyl]benzene] | 
2 |  |  | Cc1ccc([C@@H]2O[C@H](CO)[C@@H](O)[C@H](O)[C@H]2O)cc1Cc1ccc(-c2ccc(F)cc2)s1 [hemihydrate crystalline form, 1-(β-D-glucopyranosyl)-4-methyl-3-[5-(4-fluorophenyl)-2-thienylmethyl]benzene, reference compound] | completely transformed into crystalline form W
